Source: patent US5130483A, “Isoprenoid derivatives and pharmaceutical preparations containing the same” (Terumo Kabushiki Kaisha, priority 1987, dated 1992)

Tests used:
[1] = biological target: T1, 5-lipoxygenase (Rattus norvegicus, UniProt P12527); assay: 5-Lipoxygenase-inhibiting activity (Test Example 1, HPLC of 5-HETE); type: biochemical; settings: RBL-1 cell supernatant; 50 μg arachidonic acid; pH 7.4; 37° C., 15 min; HPLC peak of 5-HETE; read-out: 50% Inhibitory concentration
T1 construct: The supernatant is employed as an enzyme solution of a 5-lipoxygenase; endogenous in cells; host or cells: RBL-1 rat basophilic leukemia cells, sonicated, 15,000 rpm supernatant (crude, not purified)
T1 sequence (P12527 1-673): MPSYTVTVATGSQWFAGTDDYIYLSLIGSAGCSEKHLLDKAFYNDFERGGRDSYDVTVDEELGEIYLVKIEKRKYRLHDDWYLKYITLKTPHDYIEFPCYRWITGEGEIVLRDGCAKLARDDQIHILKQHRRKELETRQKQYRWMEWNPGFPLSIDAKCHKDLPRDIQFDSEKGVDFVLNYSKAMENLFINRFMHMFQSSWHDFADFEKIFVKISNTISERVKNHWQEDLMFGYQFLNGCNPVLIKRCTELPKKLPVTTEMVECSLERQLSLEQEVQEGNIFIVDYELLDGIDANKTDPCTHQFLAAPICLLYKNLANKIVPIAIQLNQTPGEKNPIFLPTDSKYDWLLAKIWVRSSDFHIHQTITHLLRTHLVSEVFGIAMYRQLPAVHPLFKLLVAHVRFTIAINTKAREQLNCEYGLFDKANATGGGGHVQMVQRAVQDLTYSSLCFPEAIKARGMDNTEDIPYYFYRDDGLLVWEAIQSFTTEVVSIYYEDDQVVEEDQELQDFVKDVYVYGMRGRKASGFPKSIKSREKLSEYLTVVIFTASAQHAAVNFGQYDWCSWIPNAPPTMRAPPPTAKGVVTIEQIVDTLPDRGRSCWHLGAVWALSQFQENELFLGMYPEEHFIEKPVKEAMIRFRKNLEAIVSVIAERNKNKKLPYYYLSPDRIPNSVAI
Procedure: A suspension of rat-origin basophilic leukemia cell strain RBL-1 in an Eagle basal medium (manufactured by Gibco Laboratories) containing 10% FCS is cultivated in an 5% CO2 incubator at 37° C. The culture is then centrifuged at 4° C. to collect cells. The cells are re-suspended in a phosphate buffer solution at pH 7.4 to a cell density of 1.0-3.0×10^7 cells/ml. The suspended cells are treated by an ultrasonic cell blender and then centrifuged at 15,000 rpm at 4° C. for 30 min. The supernatant is employed as an enzyme solution of a 5-lipoxygenase. In test tubes are placed 50 μg of arachdonic acid and an isoprenoid derivative of the invention to be tested. To each of the test tubes are added 0.30 ml of phosphate buffer, 0.20 ml of the enzyme solution as prepared above and 5 μl of a 100 mM CaCl2 (calcium chloride) solution. The mixture is allowed to react at 37° C. for 15 min. To the reaction mixture, after ice-cooling, is added one drop of 1N HCl (hydrochloric acid), and the resulting mass is extracted with 2 ml of ethyl acetate. The extract is concentrated to dryness followed by addition of 100 μl of methanol for use as a test specimen.
Said specimen is injected into octadecylsilane (ODS) reverse phase high performance liquid chromatography (HPLC), eluted with methanol - acetonitrile - water - acetic acid (15 : 45 : 35 : 0.01). Peak for 5-HETE (5-(s)-hydroxy-6,8,11,14-eicosatetraenoic acid), a 5-lipoxygenase product detected in approximately 25 min. is measured. The 5-lipoxygenase-inhibiting activity is determined by decrease in the peak for said 5-lipoxygenase product.
(§1) 50% inhibitory concentration as referred to in Tables 1 and 2 means concentration of an isoprenoid derivative required for controlling the production of […] as described above to 50% by introducing said isoprenoid derivative when production of 5-HETE without isoprenoid derivative of the invention is taken as 100%.

[2] = test system: stomach lesions (ulcer index) in male Wistar rats; assay: Anti-ulcer activity (ethanol-hydrochloric acid gastric lesions); type: in vivo, rat (male Wistar); settings: 100 mg/kg, oral, 1 h before ethanol-hydrochloric acid; male Wistar rats fasted 24 h
Procedure: To male Wistar rats (weighing 150-200 g) fasted for 24 hours was administered orally an isoprenoid derivative of the invention. One hour later, ethanol-hydrochloric acid (containing 150 mM hydrochloric acid in 60% ethanol) was orally given in a volume of 0.5 ml/100 g bodyweight.
One hour later, the animals were sacrificed with ether. The stomach was excised and, after formalin treatment, measured for the length (mm) of lesions developed in glandular portions of the stomach. Total length of the lesions per animal was taken as ulcer index.
Percent inhibition of ulceration as referred to in the table is a value indicating the ulcer index for the rat without an isoprenoid derivative of the invention orally given minus the ulcer index for the orally administered rat divided by the ulcer index for the orally non-administered rat multiplied by 100.

[3] = biological target: T1, 5-lipoxygenase; assay: 5-Lipoxygenase-inhibiting activity (Test Example 2, radiolabeled arachidonic acid, TLC of 5-HETE); type: biochemical; settings: RBL-1 cell supernatant, pH 7.4, 37° C., 15 min, radio-TLC of 5-HETE, read-out: 50% Inhibitory concentration
Procedure: A suspension of rat-origin basophilic leukemia cell strain RBL-1 in an Eagle basal medium (manufactured by Gbco Laboratories) containing 10 % FCS is cultivated in a 5% CO2 incubator at 37° C. The culture is then centrifuged at 4° C. to collect cells. The cells are re-suspended in a phosphate buffer solution at pH 7.4 to a cell density of 1.0 -3.0×10^7 cells/ml. The suspended cells are treated by an ultrasonic cell blender and then centrifuged at 15,000 rpm at 4° C. for 30 min. The supernant is employed as an enzyme solution of a 5-lipoxygenase. In test tubes are placed 20 μl of radiolabeled arachidonic acid (10 μl Ci/ml) and an isoprenoid derivative of the invention to be tested. To each of the test tubes are added 0.40 ml of phosphate buffer, 0.10 ml of the enzyme solution as prepared above and […] of a 100 mM CaCl2 (calcium chloride). The mixture is allowed to react at 37° C. for 15 min. To the reaction mixture, after ice-cooling, is added one drop of 1N HCl (hydrochloric acid), and the resulting mass is extracted with 2 ml of ethyl acetate. The extract is concentrated, and the concentrate is spotted and developed on a silica gel thin layer plate (Merck 60F254). Measurement of the inhibitory activity is accomplished by collecting the portion corresponding to 5-HETE (5-(s)-hydroxy-6,8,11,14-eicosatetraenoic acid), a 5-lipoxygenase product detected by a radio-thin layer chromatogram scanner (Dunnschicht-Scanner II LB2723, manufactured by Berthold) and measuring radioactivity by a liquid scintillation counter. The 5-lipoxygenase-inhibiting activity is determined by decrease in the production of said 5-lipoxygenase product.
as §1

IC50 [1] | IC50 [3] | Compound | Percent inhibition of ulceration [2]
500 nM |  | COc1cc(/C=C/C=C/C(=O)CCC=C(C)C)ccc1O [Example 1, 1-(4'-hydroxy-3'-methoxyphenyl)-9-methyl-1,3,8-decatrien-5-one] | 79.3%
380 nM |  | COc1cc(/C=C/C=C/C(=O)CC/C=C(\C)CCC=C(C)C)ccc1O [Example 2, 9,13-dimethyl-1-(4'-hydroxy-3'-methoxyphenyl)-1,3,8,12-tetradecatetraen-5-one] | 94.6%
800 nM |  | COc1cc(/C=C/C=C/C(=O)CC/C=C(\C)CC/C=C(\C)CCC=C(C)C)ccc1O [Example 3, 1-(4'-hydroxy-3'-methoxyphenyl)-9,13,17-trimethyl-1,3,8,12,16-octadecapentaen-5-one] | 85.0%
80 nM |  | CC(C)=CCCC(=O)/C=C/c1ccc(O)c(O)c1 [Example 4, 1-(3',4'-dihydroxyphenyl)-7-methyl-1,6-octadien-3-one] | 
 | 3000 nM | COc1cc(/C=C/C(=O)OCC=C(C)C)ccc1O [Example 5, prenyl 4-hydroxy-3-methoxycinnamate] | 
 | 400 nM | COc1cc(/C=C/C=C/C(=O)OCC=C(C)C)ccc1O [Example 6, prenyl 5-(3-methoxy-4-hydroxyphenyl)-2,4-pentadienoate] | 
 | 26 nM | CC(C)=CCOC(=O)/C=C/C=C/c1ccc(O)c(O)c1 [Example 7, prenyl 5-(3,4-dihydroxyphenyl)-2,4-pentadienoate] | 
 | 1200 nM | COc1cc(/C=C/C=C/C(=O)OC/C=C(\C)CCC=C(C)C)ccc1O [Example 8, geranyl 5-(4-hydroxy-3-methoxyphenyl)-2,4-pentadienoate] | 
 | 260 nM | CC(C)=CCC/C(C)=C/COC(=O)/C=C/C=C/c1ccc(O)c(O)c1 [Example 9, geranyl 5-(3,4-dihydroxyphenyl)-2,4-pentadienoate] | 
 | 650 nM | COc1cc(/C=C/C=C/C(=O)NCC=C(C)C)ccc1O [Example 11, 5-(4'-hydroxy-3'methoxyphenyl)pentadienoic acid prenylamide] | 
 | 83 nM | COc1cc(/C=C/C=C/C(=O)NC/C=C(\C)CCC=C(C)C)ccc1O [Example 12, 5-(4'-hydroxy-3-methoxyphenyl)pentadienoic acid geranylamide] | 
 | 310 nM | COc1cc(/C=C/C=C/C(=O)NC/C=C(\C)CC/C=C(\C)CCC=C(C)C)ccc1O [Example 13, 5-(4'-hydroxy3'-methoxyphenyl)pentadienoic acid (E,E)-farnesylamide] | 
 | 920 nM | COc1cc(/C=C/C(=O)NC/C=C(\C)CCC=C(C)C)ccc1O [Example 14, 4-hydroxy-3-methoxycinnamic acid geranylamide] | 
 | 11 nM | CC(C)=CCC/C(C)=C/CNC(=O)/C=C/C=C/c1ccc(O)c(O)c1 [Example 15, 5-(3',4'-dihydroxyphenyl)pentadienoic acid geranylamide] | 
